Results reported in PMC11666819, “Isolation, Structure Elucidation, and Bioactivity Evaluation of Two Alkaloids From Piper chaba H. Stem: A Traditional Medicinal Spice and Its Chemico‐Pharmacological Aspects” (Food Science & Nutrition, 2024).
Several values for one entry are separate records, joined by “and”; a condition that tells them apart may be missing. Equal entries are not always repeated.

Experiments:
[1] = tested on: Bacillus cereus [clinical isolates]; test: Disk diffusion test; format: cell-based
[2] = tested on: Bacillus megaterium [ATCC 25918]; test: Disk diffusion test; format: cell-based; conditions: for Zone of Inhibition: Bacillus megaterium, standards 30 μg/disk; for zone of inhibition at 100 µg/disc: Priestia megaterium, ATCC25918
[3] = tested on: Bacillus subtilis [ATCC6633]; test: Disk diffusion test; format: cell-based; conditions: for Zone of Inhibition: standards 30 μg/disk; for zone of inhibition at 100 µg/disc: ATCC6633
[4] = tested on: Staphylococcus aureus [ATCC25923]; test: Disk diffusion test; format: cell-based; conditions: for Zone of Inhibition: standards 30 μg/disk; for zone of inhibition at 100 µg/disc: ATCC25923
[5] = tested on: Sarcina lutea [clinical isolates]; test: Disk diffusion test; format: cell-based; conditions: for Zone of Inhibition: Sarcina lutea, standards 30 μg/disk; for zone of inhibition at 100 µg/disc: Micrococcus luteus
[6] = tested on: Escherichia coli [ATCC25922]; test: Disk diffusion test; format: cell-based; conditions: for Zone of Inhibition: standards 30 μg/disk; for zone of inhibition at 100 µg/disc: ATCC25922
[7] = tested on: Pseudomonas aeruginosa [ATCC27833]; test: Disk diffusion test; format: cell-based; conditions: for zone of inhibition at 100 µg/disc: ATCC27833
[8] = tested on: Salmonella paratyphi [clinical isolates]; test: microbe, parasite or virus in culture; format: cell-based; conditions: for Zone of Inhibition: Salmonella paratyphi, standards 30 μg/disk; for zone of inhibition at 100 µg/disc: Salmonella enterica, PARATYPHI
[9] = tested on: Salmonella typhi [clinical isolates]; test: Disk diffusion test; format: cell-based; conditions: for Zone of Inhibition: Salmonella typhi; for zone of inhibition at 100 µg/disc: Salmonella enterica, TYPHI
[10] = tested on: Shigella dysenteriae [clinical isolates]; test: Disk diffusion test; format: cell-based; conditions: for Zone of Inhibition: standards 30 μg/disk
[11] = tested on: Vibrio mimicus [clinical isolates]; test: Disk diffusion test; format: cell-based; conditions: for Zone of Inhibition: standards 30 μg/disk
[12] = tested on: Vibrio parahemolyticus [clinical isolates]; test: Disk diffusion test; format: cell-based; conditions: for Zone of Inhibition: Vibrio parahemolyticus, standards 30 μg/disk; for zone of inhibition at 100 µg/disc: Vibrio
[13] = tested on: castor oil‐induced diarrhea; test: Castor oil‐induced diarrhea test; format: in vivo, Swiss albino mice; conditions: mice; for Number of diarrheal feces: mean
Procedure: (§1) To carry out the in vivo experiment, Swiss albino mice aged between 4 and 5 weeks, of both genders, were obtained from the Animal Resource Branch of the International Centre for Diarrheal Diseases and Research, Bangladesh (ICDDR, B) (the size of the animal population, n = 5). The mice were housed in standard polypropylene cages with a 12‐h light–dark cycle. Additionally, optimal conditions such as a controlled room temperature of 24°C ± 2°C and a relative humidity of 60%–70% were upheld. They were provided with ICDDR, B‐formulated rodent food, and water ad libitum. The research protocol was approved by the Animal Ethics Committee of the State University of Bangladesh, Dhaka (2023‐01‐04/SUB/A‐ ERC/003) before initiating the study. Throughout the experiments, strict adherence to guidelines for the use and care of laboratory animals was ensured. Recognizing the sensitivity of mice to environmental variations, they were acclimatized to the experimental conditions for a minimum of 3–4 days before the commencement of the experiment. Furthermore, all ethical protocols and regulations were strictly adhered to during the design and execution of the research experiments. At the end of the experiment, an anesthesia overdose (Ketamine HCl [100 mg/kg] and Xylazine [7.5 mg/kg]) through the intraperitoneal route was given to the mice models followed by euthanasia, following the previously delineated protocols established by Zimmermann ([1983]) and Davis ([2001]) (Alam et al. [2021]; Davis [2001]; Zimmermann [1983]). All tests were carried out in abiding with the guidelines for the care and use of laboratory animals, as approved by the institutional ethical committee.
The antidiarrheal potential of the compounds Chabamide I and Chingchengenamide A isolated from P. chaba was scrutinized employing the castor oil‐induced method, as delineated by Shoba and Thomas ([2001]) with slight adjustments. In this investigation, mice were judiciously randomized into four cohorts, each consisting of six subjects. Before experimentation, the mice underwent an overnight fasting period with unrestricted access to water.
Group I, designated as the control, received vehicle solutions comprising distilled water with 1% Tween‐80. […] Groups III and IV, representing the test cohorts, received isolated phytochemicals individually at oral dosages of 10 and 20 mg/kg body weight, respectively. An additional 0.5 mL of castor oil was applied to all subjects 1 h after the initial application of test samples. Subsequently, individual mice were placed in enclosures with floors lined with transparent paper.
Throughout the observational timeframe, diverse parameters were meticulously monitored, encompassing the initiation of diarrhea, quantification of wet stools in terms of number and weight, and the cumulative number and weight of fecal output. The observation persisted until 4 h […] the subsequent application of castor oil, with the calculated mean values being designated as the definitive results.

[14] = tested on: acetic acid‐induced writhing; test: Acetic acid‐induced writhing test; format: in vivo, Swiss albino mice; conditions: mice; for Number of writhing: mean
Procedure: as §1
The analgesic efficacy of the isolated compounds, Chabamide I and Chingchengenamide A, was assessed utilizing the acetic acid‐induced writhing test, following the methodology outlined by Ahmad et al. ([2010]). […] Conversely, Groups III and IV received individual alkaloids at doses of 10 and 20 mg/kg; b.w, p.o., respectively. Subsequently, an intraperitoneal injection of acetic acid solution (0.6% v/v) was administered. The frequency of writhing responses was meticulously recorded at 5‐min intervals post‐acetic acid injection and monitored over 25 min.

[15] = tested on: eight tested human tumor cell lines; set-up: method as in Wang et al. [2014]; conditions: ref Wang et al. [2014]; cited from earlier work

SMILES | Zone of Inhibition ([1]; standards 30 μg/disk) [mm] | Zone of Inhibition [2] [mm] | Zone of Inhibition [3] [mm] | Zone of Inhibition [4] [mm] | Zone of Inhibition [5] [mm] | Zone of Inhibition [6] [mm] | Zone of Inhibition ([7]; standards 30 μg/disk) [mm] | Zone of Inhibition [8] [mm] | Zone of Inhibition ([9]; standards 30 μg/disk) [mm] | Zone of Inhibition [10] [mm] | Zone of Inhibition [11] [mm] | Zone of Inhibition [12] [mm] | zone of inhibition at 100 µg/disc [1] [mm] | zone of inhibition at 100 µg/disc [2] [mm] | zone of inhibition at 100 µg/disc [3] [mm] | zone of inhibition at 100 µg/disc [4] [mm] | zone of inhibition at 100 µg/disc [5] [mm] | zone of inhibition at 100 µg/disc [6] [mm] | zone of inhibition at 100 µg/disc [7] [mm] | zone of inhibition at 100 µg/disc [8] [mm] | further results
CC[C@H]1OC(=O)[C@H](C)[C@@H](O[C@H]2C[C@@](C)(OC)[C@@H](O)[C@H](C)O2)[C@H](C)[C@@H](O[C@@H]2O[C@H](C)C[C@H](N(C)C)[C@H]2O)[C@](C)(O)C[C@@H](C)CN(C)[C@H](C)[C@@H](O)[C@]1(C)O [Azithromycin, azithromycin, reference compound] | 35 | 33 | 32 | 39 | 37 | 39 | 42 | 32 | 38 | 38 | 33 | 40 | – | – | – | – | – | – | – | – | –
CC(C)CNC(=O)/C=C/C=C/CCc1ccc2c(c1)OCO2 [Chingchengenamide A] | – | – | – | – | – | – | – | – | – | – | – | – | 17 | 14 | 13 | 15 | 16 | 17 | 21 | 14 | zone of inhibition at 100 µg/disc [9]: 12 mm; zone of inhibition at 100 µg/disc [10]: 15 mm; zone of inhibition at 100 µg/disc [11]: 16 mm; zone of inhibition at 100 µg/disc [12]: 15 mm; % reduction of diarrhea ([13]; 10 mg/kg b.w., oral): 33.33%; Number of diarrheal feces ([13]; 10 mg/kg b.w., oral): 6.67; % reduction of diarrhea ([13]; 20 mg/kg b.w., oral): 40%; Number of diarrheal feces ([13]; 20 mg/kg b.w., oral): 6; % reduction of writhing ([14]; 10 mg/kg b.w., p.o.): 34.69%; Number of writhing ([14]; 10 mg/kg b.w., p.o.): 10.67; % reduction of writhing ([14]; 20 mg/kg b.w., p.o.): 42.86%; Number of writhing ([14]; 20 mg/kg b.w., p.o.): 9.33; inhibitory effectiveness against human tumor cell lines [15]: inhibitory effectiveness against at least one of eight tested human tumor cell lines
CC(C)CNC(=O)C1C(C(=O)N2CCCCC2)C=CC(c2ccc3c(c2)OCO3)C1c1ccc2c(c1)OCO2 (stereo not drawn) [Chabamide I] | – | – | – | – | – | – | – | – | – | – | – | – | 20 | 15 | 11 | 18 | 16 | 18 | 21 | 18 | Zone of Inhibition ([1]; 100 μg/disk): notable antimicrobial activity; Zone of Inhibition ([7]; 100 μg/disk): notable antimicrobial activity; zone of inhibition at 100 µg/disc [9]: 21 mm; Zone of Inhibition ([9]; 100 μg/disk): notable antimicrobial activity; zone of inhibition at 100 µg/disc [10]: 18 mm; zone of inhibition at 100 µg/disc [11]: 15 mm; zone of inhibition at 100 µg/disc [12]: 16 mm; % reduction of diarrhea ([13]; 10 mg/kg b.w., oral): 43.33%; Number of diarrheal feces ([13]; 10 mg/kg b.w., oral): 5.67; % reduction of diarrhea ([13]; 20 mg/kg b.w., oral): 46.67%; Number of diarrheal feces ([13]; 20 mg/kg b.w., oral): 5.33; % reduction of writhing ([14]; 10 mg/kg b.w., p.o.): 40.82%; Number of writhing ([14]; 10 mg/kg b.w., p.o.): 9.67; % reduction of writhing ([14]; 20 mg/kg b.w., p.o.): 53.06%; Number of writhing ([14]; 20 mg/kg b.w., p.o.): 7.67; inhibitory effectiveness against human tumor cell lines [15]: inhibitory effectiveness against at least one of eight tested human tumor cell lines
CC1(C)S[C@@H]2[C@H](NC(=O)[C@H](N)c3ccc(O)cc3)C(=O)N2[C@H]1C(=O)O [Amoxicillin, amoxicillin, reference compound] | 33 | 29 | 26 | 36 | 32 | 37 | 38 | 32 | 31 | 30 | 28 | 35 | – | – | – | – | – | – | – | – | –
O=C(O)Cc1ccccc1Nc1c(Cl)cccc1Cl [Diclofenac Sodium, diclofenac sodium, reference compound] | – | – | – | – | – | – | – | – | – | – | – | – | – | – | – | – | – | – | – | – | % reduction of writhing ([14]; standard, 5 mg/kg b.w., 5 mg/kg): 80% and 77.55%; Number of writhing ([14]; standard, 5 mg/kg b.w.): 3.67
CN(C)C(=O)C(CCN1CCC(O)(c2ccc(Cl)cc2)CC1)(c1ccccc1)c1ccccc1 [Loperamide, loperamide, reference compound] | – | – | – | – | – | – | – | – | – | – | – | – | – | – | – | – | – | – | – | – | Number of diarrheal feces ([13]; standard, 5 mg/kg b.w.): 2
